A word on the IC50: it is the concentration that inhibits the measured activity by half.

In patent US9145392B2, “Imidazole amines as modulators of kinase activity” (Merck Patent GmbH, priority 2011, dated 2015) one finds IC50 data, which are given here for 24 molecules.

Assay [1] addresses P70S6K (T412E mutant) (Homo sapiens (Human), UniProt P23443, T412E). Put plainly: P70S6K enzyme assay. Particulars: read-out: IC50 p70S6K. It counts as biochemical. Here is the method: P70S6K inhibitor compounds are diluted and plated in 96 well plates. […] The reaction is incubated for 90 min at 25° C., before the addition of 10 mM EDTA to stop the reaction. The proportion of substrate and product (phosphorylated) peptide is analysed on a Caliper Life Sciences Lab Chip 3000, using a pressure of −1.4 psi, and upstream and downstream voltages of −3000 and −700 respectively. Product peaks are resolved before substrate peaks on the resulting chromatograms.

In assay [2] the target is His-AKT (Full Length) (Homo sapiens (Human), UniProt P31749). Nature of the assay: AKT enzyme assay. It counts as biochemical. The conditions noted are these: read-out: IC50 AKT. The method, then: A TTP Mosquito liquid handling instrument is used to place 125n1 of the appropriate concentration of inhibitor in 100% DMSO (for a dose response curve calculation) into each well of a 384-well plate.
His-AKT (Full Length), sequence (P31749 whole entry): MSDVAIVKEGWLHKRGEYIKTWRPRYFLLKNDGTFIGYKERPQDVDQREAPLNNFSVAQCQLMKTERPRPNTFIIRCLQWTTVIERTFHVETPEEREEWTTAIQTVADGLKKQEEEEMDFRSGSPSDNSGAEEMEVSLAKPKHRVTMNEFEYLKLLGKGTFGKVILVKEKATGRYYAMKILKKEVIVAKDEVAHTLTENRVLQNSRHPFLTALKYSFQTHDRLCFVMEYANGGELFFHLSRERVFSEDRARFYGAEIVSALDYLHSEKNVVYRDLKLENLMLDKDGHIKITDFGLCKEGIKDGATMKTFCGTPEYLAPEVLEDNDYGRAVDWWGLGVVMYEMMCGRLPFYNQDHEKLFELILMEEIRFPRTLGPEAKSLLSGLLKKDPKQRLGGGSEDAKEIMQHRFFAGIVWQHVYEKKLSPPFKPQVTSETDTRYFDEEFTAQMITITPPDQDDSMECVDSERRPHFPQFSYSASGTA
The reaction is incubated for 90 min at 25 C, and then stopped by the addition of 70 μl of Stop buffer (100 mM HEPES pH 7.5, 0.015% Brij-35, 10 mM EDTA (Sigma, E7889)).
The plate is read on a Caliper LC 3000 in an Off-Chip mobility shift assay format, using the following parameters for a 12-sipper chip: screening pressure −2.3 psi, upstream voltage −500, and downstream voltage −3000. These conditions cause unphosphorylated substrate and phosphorylated product peptide to resolve as separate peaks allowing direct measurement of percentage of conversion of substrate to product. The percent conversion can be plotted against concentration of inhibitor to produce a sigmoidal dose response curve, from which an IC50 can be calculated.

P70S6K (T412E mutant), sequence (P23443 whole entry T412E): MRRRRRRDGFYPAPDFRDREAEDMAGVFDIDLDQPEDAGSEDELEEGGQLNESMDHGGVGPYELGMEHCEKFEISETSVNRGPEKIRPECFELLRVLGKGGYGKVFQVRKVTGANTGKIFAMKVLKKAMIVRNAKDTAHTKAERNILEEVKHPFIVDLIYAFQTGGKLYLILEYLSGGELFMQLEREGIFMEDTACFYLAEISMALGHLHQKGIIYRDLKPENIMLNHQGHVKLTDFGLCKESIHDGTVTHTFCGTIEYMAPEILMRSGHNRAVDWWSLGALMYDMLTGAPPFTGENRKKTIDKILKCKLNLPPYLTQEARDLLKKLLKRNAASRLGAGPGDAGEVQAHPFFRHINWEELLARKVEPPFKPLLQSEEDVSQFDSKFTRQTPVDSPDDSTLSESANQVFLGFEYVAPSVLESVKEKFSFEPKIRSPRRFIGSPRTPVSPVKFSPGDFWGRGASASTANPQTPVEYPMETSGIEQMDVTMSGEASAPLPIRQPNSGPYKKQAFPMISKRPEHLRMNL

For `Cn1cc(-c2ccc(F)c(C(F)(F)F)c2)nc1C1CCN(c2ncnc(N)c2Br)CC1` [Compound 1, 5-Bromo-6-{4-[4-(4-fluoro-3-trifluoromethyl-phenyl)-1-methyl-1H-imidazol-2-yl]-piperidin-1-yl}-pyrimidin-4-ylamine], the IC50 was found to be 2.1 nM in assay [1] and 66 nM in assay [2].
Consider `Nc1ncnc(N2CCC(c3nc(-c4cccc(C(F)(F)F)c4)c[nH]3)CC2)c1Br` [Compound 3, 5-Bromo-6-{4-[4-(3-trifluoromethyl-phenyl)-1H-imidazol-2-yl]-piperidin-1-yl}-pyrimidin-4-ylamine], for which the IC50 in assay [1] worked out at 6.2 nM; in assay [2], 1700 nM.
For `FC(F)(F)c1cccc(-c2c[nH]c(C3CCN(c4ncncc4Br)CC3)n2)c1` [Compound 4, 5-Bromo-4-{4-[4-(3-trifluoromethyl-phenyl)-1H-imidazol-2-yl]-piperidin-1-yl}-pyrimidine], in that order: 31.9 nM and 6100 nM.
The like results for `Cn1cc(-c2ccc(F)c(C(F)(F)F)c2)nc1C1CCN(c2ncnc(N)c2C=O)CC1` [Compound 6, 4-Amino-6-{4-[4-(4-fluoro-3-trifluoromethyl-phenyl)-1-methyl-1H-imidazol-2-yl]-piperidin-1-yl}-pyrimidine-5-carbaldehyde] were, in that order, 0.6 nM and 160 nM.
The like results for `Cn1cc(-c2ccc(F)c(C(F)(F)F)c2)nc1C1CCN(c2ncnc(N)c2C#N)CC1` [Compound 7, 4-Amino-6-{4-[4-(4-fluoro-3-trifluoromethyl-phenyl)-1-methyl-1H-imidazol-2-yl]-piperidin-1-yl}-pyrimidine-5-carbonitrile] were, in that order, 1.5 nM and 110 nM.
With `CN(C)CCn1cc(-c2ccc(F)c(C(F)(F)F)c2)nc1C1CCN(c2ncnc(N)c2C#N)CC1` [Compound 8, 4-Amino-6-{4-[1-(2-dimethylamino-ethyl)-4-(4-fluoro-3-trifluoromethyl-phenyl)-1H-imidazol-2-yl]-piperidin-1-yl}-pyrimidine-5-carbonitrile], the IC50 in assay [1] stood at 1.8 nM; in assay [2] it was 9.1 nM.
`COc1c(N)ncnc1N1CCC(c2nc(-c3ccc(F)c(C(F)(F)F)c3)cn2C)CC1` [Compound 9, 6-{4-[4-(4-Fluoro-3-trifluoromethyl-phenyl)-1-methyl-1H-imidazol-2-yl]-piperidin-1-yl}-5-methoxy-pyrimidin-4-ylamine]: the IC50 in assay [1] was determined as 2.1 nM; in assay [2], 440 nM.
For the molecule `Cn1cc(-c2ccc(F)c(C(F)(F)F)c2)nc1C1CCN(c2ncnc(N)c2-c2ccc(F)cc2)CC1` [Compound 10, 5-(4-Fluoro-phenyl)-6-{4-[4-(4-fluoro-3-trifluoromethyl-phenyl)-1-methyl-1H-imidazol-2-yl]-piperidin-1-yl}-pyrimidin-4-ylamine], the IC50 in assay [1] is 3.4 nM; in assay [2] it was 2200 nM.
As to `COc1ccc(-c2c(N)ncnc2N2CCC(c3nc(-c4ccc(F)c(C(F)(F)F)c4)cn3C)CC2)cc1` [Compound 11, 6-{4-[4-(4-Fluoro-3-trifluoromethyl-phenyl)-1-methyl-1H-imidazol-2-yl]-piperidin-1-yl}-5-(4-methoxy-phenyl)-pyrimidin-4-ylamine], the half-maximal inhibitory concentration (IC50) in assay [1] came out at 4.7 nM; in assay [2], 520 nM.
The like results for `Cc1ccc(-c2c(N)ncnc2N2CCC(c3nc(-c4ccc(F)c(C(F)(F)F)c4)cn3C)CC2)cc1` [Compound 13, 6-{4-[4-(4-Fluoro-3-trifluoromethyl-phenyl)-1-methyl-1H-imidazol-2-yl]-piperidin-1-yl}-5-p-tolyl-pyrimidin-4-ylamine] were, in that order, 7.3 nM and 8300 nM.
For `Cn1cc(-c2ccc(F)c(C(F)(F)F)c2)nc1C1CCN(c2ncnc(N)c2-c2ccc(CO)cc2)CC1` [Compound 14, [4-(4-Amino-6-{4-[4-(4-fluoro-3-trifluoromethyl-phenyl)-1-methyl-1H-imidazol-2-yl]-piperidin-1-yl}-pyrimidin-5-yl)-phenyl]-methanol], the figures for the IC50 in assay [1] and in assay [2] were 1.9 nM and 250 nM, respectively.
The like results for `Cn1cc(-c2ccc(F)c(C(F)(F)F)c2)nc1C1CCN(c2ncnc(N)c2-c2cccc(C#N)c2)CC1` [Compound 15, 3-(4-Amino-6-{4-[4-(4-fluoro-3-trifluoromethyl-phenyl)-1-methyl-1H-imidazol-2-yl]-piperidin-1-yl}-pyrimidin-5-yl)-benzonitrile] were, in that order, 11 nM and 150 nM.
Take `Cn1cc(-c2ccc(F)c(C(F)(F)F)c2)nc1C1CCN(c2ncnc(N)c2-c2ccc(C#N)cc2)CC1` [Compound 17, 4-(4-Amino-6-{4-[4-(4-fluoro-3-trifluoromethyl-phenyl)-1-methyl-1H-imidazol-2-yl]-piperidin-1-yl}-pyrimidin-5-yl)-benzonitrile]: the IC50 in assay [1] and in assay [2] was 2.7 nM in each case.
As for `Cc1ccc(-c2c(N)ncnc2N2CCC(c3nc(-c4ccc(F)c(C(F)(F)F)c4)cn3C)CC2)cn1` [Compound 19, 6-{4-[4-(4-Fluoro-3-trifluoromethyl-phenyl)-1-methyl-1H-imidazol-2-yl]-piperidin-1-yl}-5-(6-methyl-pyridin-3-yl)-pyrimidin-4-ylamine], the IC50 in assay [1] amounted to 2.2 nM; in assay [2], 1700 nM.
With `Cc1ccc(-c2c(N)ncnc2N2CCC(c3nc(-c4ccc(F)c(C(F)(F)F)c4)cn3C)CC2)s1` [Compound 20, 6-{4-[4-(4-Fluoro-3-trifluoromethyl-phenyl)-1-methyl-1H-imidazol-2-yl]-piperidin-1-yl}-5-(5-methyl-thiophen-2-yl)-pyrimidin-4-ylamine], the IC50 turned out to be 7.1 nM in assay [1] and 2700 nM in assay [2].
On to `Cn1cc(-c2ccc(F)c(C(F)(F)F)c2)nc1C1CCN(c2ncnc(N)c2CO)CC1` [Compound 36, (4-Amino-6-{4-[4-(4-fluoro-3-trifluoromethyl-phenyl)-1-methyl-1H-imidazol-2-yl]-piperidin-1-yl}-pyrimidin-5-yl)-methanol], for which the IC50 amounted to 2.2 nM in assay [1] and 1100 nM in assay [2].
The like results for `Cn1cc(-c2ccc(F)c(C(F)(F)F)c2)nc1C1CCN(c2ncnc(N)c2C(N)=O)CC1` [Compound 37, 4-Amino-6-{4-[4-(4-fluoro-3-trifluoromethyl-phenyl)-1-methyl-1H-imidazol-2-yl]-piperidin-1-yl}-pyrimidine-5-carboxamide] were, in that order, 2.6 nM and 1600 nM.
For `CN(C)CCn1cc(-c2ccc(F)c(C(F)(F)F)c2)nc1C1CCN(c2ncnc(N)c2C(N)=O)CC1` [Compound 38, 4-Amino-6-{4-[1-(2-dimethylamino-ethyl)-4-(4-fluoro-3-trifluoromethyl-phenyl)-1H-imidazol-2-yl]-piperidin-1-yl}-pyrimidine-5-carboxylic acid amide], in that order: 3.5 nM and 84 nM.
On to `Cn1cc(-c2ccc(F)c(C(F)(F)F)c2)nc1C1CCN(c2ncnc(N)c2-c2ccncc2)CC1` [Compound 39, 6-{4-[4-(4-Fluoro-3-trifluoromethyl-phenyl)-1-methyl-1H-imidazol-2-yl]-piperidin-1-yl}-5-pyridin-4-yl-pyrimidin-4-ylamine], for which the IC50 in assay [1] was found to be 1.4 nM; in assay [2], 860 nM.
Turning to `Cn1cc(-c2ccc(F)c(C(F)(F)F)c2)nc1C1CCN(c2ncnc(N)c2-c2ccc(N)nc2)CC1` [Compound 40, 5-(6-Amino-pyridin-3-yl)-6-{4-[4-(4-fluoro-3-trifluoromethyl-phenyl)-1-methyl-1H-imidazol-2-yl]-piperidin-1-yl}-pyrimidin-4-ylamine], the figures for the IC50 in assay [1] and in assay [2] were 2.3 nM and 2700 nM, respectively.
Take `Cn1cc(-c2ccc(F)c(C(F)(F)F)c2)nc1C1CCN(c2ncncc2Br)CC1` [Compound 41, 5-Bromo-4-{4-[4-(4-fluoro-3-trifluoromethyl-phenyl)-1-methyl-1H-imidazol-2-yl]-piperidin-1-yl}-pyrimidine]: the IC50 in assay [1] worked out at 3 nM; in assay [2], 1400 nM.
Turning to `Nc1ncnc(N2CCC(c3nc(-c4ccc(F)c(C(F)(F)F)c4)c[nH]3)CC2)c1Br` [Compound 43, 5-Bromo-6-{4-[4-(4-fluoro-3-trifluoromethyl-phenyl)-1H-imidazol-2-yl]-piperidin-1-yl}-pyrimidin-4-ylamine], the IC50 stood at 1.7 nM in assay [1] and 600 nM in assay [2].
The like results for `Nc1ncnc(N2CCC(c3nc(-c4ccc(F)c(C(F)(F)F)c4)c[nH]3)CC2)c1-c1ccc(F)cc1` [Compound 44, 5-(4-Fluoro-phenyl)-6-{4-[4-(4-fluoro-3-trifluoromethyl-phenyl)-1H-imidazol-2-yl]-piperidin-1-yl}-pyrimidin-4-ylamine] were, in that order, 2.4 nM and 9500 nM.
For `Cn1cc(-c2ccc(F)c(C(F)(F)F)c2)nc1C1CCN(c2ncnc(N)c2-c2cncnc2)CC1` [Compound 48, 6-{4-[4-(4-Fluoro-3-trifluoromethyl-phenyl)-1-methyl-1H-imidazol-2-yl]-piperidin-1-yl}-[5,5′]bipyrimidinyl-4-ylamine], in that order: 2.7 nM and 440 nM.
